Measured values as given in patent US11370847B2, “Single domain antibodies directed against intracellular antigens” (Singh Biotechnology, LLC, priority 2014, dated 2022).
Values joined by “and” are separate entries in the source; they are usually repeats but may differ in a detail not shown here. Equal entries are not always repeated. Where two headings read alike, the source gives them in different places.

Legend:
[1] = test system: VEGF-A; assay: VEGF-A ELISA in ARPE-19 retinal cells; assay type: cell-based, human; details: Experiment 2; for pg VEGF-A per μg protein: single wells
[2] = test system: MDA-MB-231 xenograft; details: for Individual Tumor Measurements: listed as anti-STAT3 bacterial VHH13
[3] = Group 2, 1 mg/kg IP BID×14, day 20 (6/23/15)
[4] = Group 2, 1 mg/kg IP BID×14, day 23 (6/26/15)
[5] = Group 2, 1 mg/kg IP BID×14, day 26 (6/29/15)
[6] = Group 2, 1 mg/kg IP BID×14, day 29 (7/2/15)
[7] = Group 2, 1 mg/kg IP BID×14, day 33 (7/6/15)
[8] = Group 2, 1 mg/kg IP BID×14, day 36 (7/9/15)
[9] = Group 2, 1 mg/kg IP BID×14, day 42 (7/15/15)
[10] = Group 3, 2 mg/kg IP BID×14, day 20 (6/23/15)
[11] = Group 3, 2 mg/kg IP BID×14, day 23 (6/26/15)
[12] = Group 3, 2 mg/kg IP BID×14, day 26 (6/29/15)
[13] = Group 3, 2 mg/kg IP BID×14, day 29 (7/2/15)
[14] = Group 3, 2 mg/kg IP BID×14, day 33 (7/6/15)
[15] = Group 3, 2 mg/kg IP BID×14, day 36 (7/9/15)
[16] = Group 3, 2 mg/kg IP BID×14, day 42 (7/15/15)

Which “pg VEGF-A per μg protein” value ([1]; ARPE-19, 0.1 μg/well, 12 Hr) does the source give for “anti-STAT3 VHH13: anti-STAT3 single-domain antibody, SEQ ID NO:3; bacterially produced, referred to as SBT-100” here?
Its value is 2.4 pg per μg protein.

And the “pg VEGF-A per μg protein” value ([1]; ARPE-19, 10 μg/well, 24 Hr)?
The value was 4.4 pg per μg protein.

And the “decrease in VEGF-A” value ([1]; ARPE-19, 100 μg/mL, 12 hour treatment)?
The value was 20.1%.

What about the “decrease in VEGF-A” value ([1]; ARPE-19, 100 μg/mL, 24 hour treatment) of the same substance?
The value was 7.5%.

What about the “pg VEGF-A/μg protein as % of the negative control” value ([1]; ARPE-19, 100 μg/mL, 48 hours) of the same substance?
The value was 11%.

What about the “decrease in VEGF-A” value ([1]; lower concentrations (10, 1 or 0.1 μg/ml)) of the same substance?
The value was “not seen”.

What about the “% mean tumor growth inhibition” value ([2]; 500 μg/kg bw IP QD×14) of the same substance?
The value was 33.64%.

And the “mean tumor size (±SE) on day 14 of dosing” value ([2]; 500 μg/kg bw IP QD×14)?
The value was 118.86±15.94.

What about the tumor doubling time ([2]; 500 μg/kg bw IP QD×14, control 44.27 days) of the same substance?
The tumor doubling time was 61.06 days.

What about the “% Inhibition Mean” value [2, 3] of the same substance?
Its value is 10.34%.

What about the “% Inhibition Median” value [2, 3] of the same substance?
Its value is 18.61%.

And the “Tumor Mean Absolute” value [2, 3]?
Its value is 82.92 mm^3.

And the “Tumor Median Absolute” value [2, 3]?
Its value is 80.66 mm^3.

What about the “Individual Tumor Measurements” value [2, 3] of the same substance?
Its value is 73.15 mm^3 and 80.11 mm^3 and 97.22 mm^3 and 81.21 mm^3.

What about the “% Inhibition Mean” value [2, 4] of the same substance?
Its value is 52.39%.

What about the “% Inhibition Median” value [2, 4] of the same substance?
The value was 43.28%.

And the “Tumor Mean Absolute” value [2, 4]?
Its value is 66.17 mm^3.

What about the “Tumor Median Absolute” value [2, 4] of the same substance?
Its value is 65.55 mm^3.

What about the “Individual Tumor Measurements” value [2, 4] of the same substance?
The value was 54.54 mm^3 and 76.56 mm^3 and 79.99 mm^3 and 53.58 mm^3.

What about the “% Inhibition Mean” value [2, 5] of the same substance?
Its value is 60.52%.

What about the “% Inhibition Median” value [2, 5] of the same substance?
Its value is 50.54%.

What about the “Tumor Mean Absolute” value [2, 5] of the same substance?
Its value is 68.07 mm^3.

What about the “Tumor Median Absolute” value [2, 5] of the same substance?
Its value is 68.80 mm^3.

And the “Individual Tumor Measurements” value [2, 5]?
Its value is 59.17 mm^3 and 80.34 mm^3 and 78.44 mm^3 and 54.34 mm^3.

What about the “% Inhibition Mean” value [2, 6] of the same substance?
Its value is 65.12%.

What about the “% Inhibition Median” value [2, 6] of the same substance?
The value was 61.81%.

And the “Tumor Mean Absolute” value [2, 6]?
The value was 68.32 mm^3.

And the “Tumor Median Absolute” value [2, 6]?
Its value is 63.66 mm^3.

What about the “Individual Tumor Measurements” value [2, 6] of the same substance?
Its value is 57.21 mm^3 and 88.75 mm^3 and 59.90 mm^3 and 67.43 mm^3.

What about the “% Inhibition Mean” value [2, 7] of the same substance?
Its value is 69.70%.

What about the “% Inhibition Median” value [2, 7] of the same substance?
The value was 72.26%.

And the “Tumor Mean Absolute” value [2, 7]?
Its value is 67.12 mm^3.

What about the “Tumor Median Absolute” value [2, 7] of the same substance?
Its value is 56.75 mm^3.

And the “Individual Tumor Measurements” value [2, 7]?
Its value is 56.20 mm^3 and 99.09 mm^3 and 55.90 mm^3 and 57.30 mm^3.

What about the “% Inhibition Mean” value [2, 8] of the same substance?
The value was 78.28%.

What about the “% Inhibition Median” value [2, 8] of the same substance?
The value was 79.75%.

And the “Tumor Mean Absolute” value [2, 8]?
The value was 51.81 mm^3.

What about the “Tumor Median Absolute” value [2, 8] of the same substance?
The value was 45.40 mm^3.

And the “Individual Tumor Measurements” value [2, 8]?
Its value is 37.13 mm^3 and 87.42 mm^3 and 53.66 mm^3 and 29.02 mm^3.

What about the “% Inhibition Mean” value [2, 9] of the same substance?
The value was 78.08%.

And the “% Inhibition Median” value [2, 9]?
Its value is 76.74%.

What about the “Tumor Mean Absolute” value [2, 9] of the same substance?
Its value is 55.98 mm^3.

And the “Tumor Median Absolute” value [2, 9]?
Its value is 56.29 mm^3.

What about the “Individual Tumor Measurements” value [2, 9] of the same substance?
Its value is 39.17 mm^3 and 72.18 mm^3 and 60.35 mm^3 and 52.23 mm^3.

And the growth delay ([2]; Group 2: 1 mg/kg bw IP BID×14)?
The growth delay was 13.99 days.

What about the mean growth inhibition ([2]; Group 2: 1 mg/kg bw IP BID×14) of the same substance?
The mean growth inhibition was 78.3.

And the “mean tumor size (±S.E.) at termination (day 42)” value ([2]; Group 2: 1 mg/kg bw IP BID×14)?
The value was 55.98±6.94.

And the “mean tumor size (±SE) at day 14 of dosing” value ([2]; Group 2: 1 mg/kg bw IP BID×14)?
The value was 67.12±10.66.

What about the “% treatment/control” value ([2]; Group 2: 1 mg/kg bw IP BID×14, (tumor stasis)) of the same substance?
Its value is −33.75%.

What about the tumor doubling time ([2]; Group 2: 1 mg/kg bw IP BID×14, control 20.56 days) of the same substance?
The tumor doubling time was 34.54 days.

What about the “% Inhibition Mean” value [2, 10] of the same substance?
Its value is 16.19%.

What about the “% Inhibition Median” value [2, 10] of the same substance?
Its value is 15.78%.

And the “Tumor Mean Absolute” value [2, 10]?
The value was 77.52 mm^3.

What about the “Tumor Median Absolute” value [2, 10] of the same substance?
Its value is 83.46 mm^3.

What about the “Individual Tumor Measurements” value [2, 10] of the same substance?
The value was 56.41 mm^3 and 84.06 mm^3 and 82.87 mm^3 and 86.73 mm^3.

And the “% Inhibition Mean” value [2, 11]?
Its value is 59.06%.

And the “% Inhibition Median” value [2, 11]?
Its value is 57.27%.

And the “Tumor Mean Absolute” value [2, 11]?
The value was 56.89 mm^3.

And the “Tumor Median Absolute” value [2, 11]?
The value was 49.39 mm^3.

And the “Individual Tumor Measurements” value [2, 11]?
Its value is 43.61 mm^3 and 85.18 mm^3 and 54.78 mm^3 and 44.01 mm^3.

And the “% Inhibition Mean” value [2, 12]?
Its value is 77.83%.

What about the “% Inhibition Median” value [2, 12] of the same substance?
Its value is 75.54%.

And the “Tumor Mean Absolute” value [2, 12]?
Its value is 38.22 mm^3.

And the “Tumor Median Absolute” value [2, 12]?
Its value is 34.02 mm^3.

What about the “Individual Tumor Measurements” value [2, 12] of the same substance?
Its value is 33.13 mm^3 and 61.75 mm^3 and 34.92 mm^3 and 23.09 mm^3.

And the “% Inhibition Mean” value [2, 13]?
The value was 76.54%.

And the “% Inhibition Median” value [2, 13]?
The value was 74.17%.

And the “Tumor Mean Absolute” value [2, 13]?
Its value is 45.95 mm^3.

And the “Tumor Median Absolute” value [2, 13]?
Its value is 43.07 mm^3.

And the “Individual Tumor Measurements” value [2, 13]?
The value was 31.76 mm^3 and 80.69 mm^3 and 54.38 mm^3 and 16.99 mm^3.

What about the “% Inhibition Mean” value [2, 14] of the same substance?
Its value is 73.69%.

What about the “% Inhibition Median” value [2, 14] of the same substance?
The value was 72.49%.

What about the “Tumor Mean Absolute” value [2, 14] of the same substance?
Its value is 58.27 mm^3.

And the “Tumor Median Absolute” value [2, 14]?
The value was 56.29 mm^3.

What about the “Individual Tumor Measurements” value [2, 14] of the same substance?
The value was 34.11 mm^3 and 110.72 mm^3 and 78.47 mm^3 and 9.78 mm^3.

And the “% Inhibition Mean” value [2, 15]?
Its value is 75.18%.

What about the “% Inhibition Median” value [2, 15] of the same substance?
The value was 71.22%.

What about the “Tumor Mean Absolute” value [2, 15] of the same substance?
Its value is 59.21 mm^3.

And the “Tumor Median Absolute” value [2, 15]?
The value was 64.51 mm^3.

And the “Individual Tumor Measurements” value [2, 15]?
The value was 50.33 mm^3 and 89.11 mm^3 and 78.68 mm^3 and 18.71 mm^3.

And the “% Inhibition Mean” value [2, 16]?
Its value is 83.89%.

And the “% Inhibition Median” value [2, 16]?
Its value is 85.17%.

What about the “Tumor Mean Absolute” value [2, 16] of the same substance?
The value was 41.15 mm^3.

What about the “Tumor Median Absolute” value [2, 16] of the same substance?
Its value is 35.89 mm^3.

What about the “Individual Tumor Measurements” value [2, 16] of the same substance?
Its value is 18.94 mm^3 and 73.89 mm^3 and 51.30 mm^3 and 20.48 mm^3.

And the growth delay ([2]; Group 3: 2 mg/kg bw IP BID×14)?
Its growth delay is 9.52 days.
